Measured values published in patent US20190185518A9, “WARHEAD-CONTAINING PEPTIDOMIMETIC MACROCYCLES AS MODULATORS OF BFL-1” (AILERON Therapeutics, Inc., priority 2017, published 2019).
Read-outs that look alike come from different tables or passages of the source. Positions of bridges follow the written chain, without caps; N, C: chain ends. Non-standard residues stand in square brackets, D forms with d. Residues, ends and D or L forms follow the SMILES beside them. Phe(4-F) = N[C@@H](Cc1ccc(F)cc1)C(=O)O; R8 = C=CCCCCCC[C@@](C)(N)C(=O)O; hLeu = CC(C)CC[C@H](N)C(=O)O; S5 = C=CCCC[C@](C)(N)C(=O)O; Aib = CC(C)(N)C(=O)O

Key:
[1] = target: Mcl-1 (Homo sapiens, UniProt Q07820); assay: Ki determination for Mcl-1 (BCL-2 family binding spectrum)
Summary of the method: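 Competitive fluorescence polarization assay in which compounds displace a fluoresceinated peptidomimetic macrocycle tracer from Mcl-1. Affinity constants were obtained by nonlinear regression.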

[2] = target: Mcl-1, Bcl-xL, Bcl-2; assay: BCL-2 family selectivity profile; assay type: binding; details: for Profile: TABLE 8
From the text: The binding spectrum of stapled BIM BH3 peptides were tuned for BCL-2 family selectivity. […] ABT-199 is venetoclax, and † represents values reported in the literature.

[3] = target: T1, MCL-1/BAK protein-protein interaction (Homo sapiens, UniProt Q07820); assay: MCL-1 displacement study (BAK FRET signal); assay type: cell-based; details: 10 μM and 20 μM
T1 construct: host or cells: Raji
Experimental: BIM peptidomimetic macrocycles were tested for displacement of MCL-1 from a BAK fluorescence resonance energy transfer (FRET) peptide.
FIG. 19 compares normalized FRET signals of samples to determine the samples' effects in disrupting MCL-1/BAK protein-protein interactions.

[4] = target: Bcl-xL (Homo sapiens, UniProt Q07817); assay: Ki determination for Bcl-xL (BCL-2 family binding spectrum)
Summary of the method: (§1)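 Competitive fluorescence polarization: compounds (1 nM–1 mM) with 25 nM fluoresceinated peptidomimetic macrocycle and 50 nM protein in 140 mM NaCl, 50 mM Tris-HCl pH 7.4, 30 min at room temperature. Constants from nonlinear regression.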

[5] = test system: A375-P melanoma cells; assay: Cell viability (CellTiter-Glo), A375-P; assay type: cell-based; details: A375-P; 40 μM, 5% serum
Experimental: (§2) Cancer cells were cultured using a standard culture medium containing 10% fetal bovine serum (FBS) and penicillin-streptomycin (A375P: DMEM; SK-MEL-2, SK-MEL-28: EMEM). Cells were plated in 96-well plates (5×10^3 cells per well) and, after overnight incubation, treated with the indicated concentrations of Stapled Peptides in the corresponding medium supplemented with 5% FBS for the indicated durations. Cell viability and caspase-3/7 activation was measured using CellTiter-Glo and Caspase-Glo 3/7 chemiluminescence reagents (Promega), respectively. Luminescence was detected by a microplate reader (Spectramax M5, Molecular Devices).

[6] = test system: SK-MEL-2 melanoma cells; assay: Cell viability (CellTiter-Glo), SK-MEL-2; assay type: cell-based; details: SK-MEL-2; 40 μM, 5% serum
Experimental: as §2

[7] = test system: SK-MEL-28 melanoma cells; assay: Cell viability (CellTiter-Glo), SK-MEL-28; assay type: cell-based; details: SK-MEL-28; 40 μM, 5% serum
Experimental: as §2

[8] = test system: A375-P melanoma cells; assay: Caspase-3/7 activation (Caspase-Glo 3/7), A375-P; assay type: cell-based; details: A375-P; control BIM SAHBA1 40 μM, 5% serum
Experimental: as §2

[9] = test system: SK-MEL-2 melanoma cells; assay: Caspase-3/7 activation (Caspase-Glo 3/7), SK-MEL-2; assay type: cell-based; details: SK-MEL-2; control BIM SAHBA1 40 μM, 5% serum
Experimental: as §2

[10] = test system: SK-MEL-28 melanoma cells; assay: Caspase-3/7 activation (Caspase-Glo 3/7), SK-MEL-28; assay type: cell-based; details: SK-MEL-28; control BIM SAHBA1 40 μM, 5% serum
Experimental: as §2

[11] = test system: BAX-BAK^wt/wt MEF cells; assay: On-mechanism cytotoxic activity, BAX-BAK wt/wt MEF cells; assay type: cell-based; details: 5% serum
[12] = test system: BAX-BAK^−/− double knock outs (DKO) MEF cells; assay: On-mechanism cytotoxic activity, BAX-BAK-/- double knock out MEF cells; assay type: cell-based; details: 5% serum
[13] = test system: released LDH (damaged cells); assay: Lactate dehydrogenase cytotoxicity colorimetric assay; assay type: cell-based; details: 5% serum
From the text: When cell membranes are compromised or damaged, lactate dehydrogenase (LDH), a soluble yet stable enzyme found inside every living cell, is released into the surrounding extracellular space. The presence of LDH in the culture medium can be used as a cell death marker. The relative amounts of live and dead cells within the medium can then be quantified by measuring the amount of released LDH using a colorimetric or fluorimetric LDH cytotoxicity assay. When using an LDH colorimetric assay, the amount of LDH released in the surrounding environment is measured with an enzymatic reaction that converts iodonitrotetrazolium (INT) into red-colored formazan. When LDH is present in the cell culture, the LDH reduces NAD^+ to NADH and H^+ through the oxidation of lactate to pyruvate. Afterward, the catalyst (diaphorase) then transfers H/H^+ from NADH^+H^+ to the trazolium salt INT to form the red-colored formazan salt. The amount of color produced is measured at 490 nm by standard spectroscopy, and is proportional to the amount of damaged cells in the culture.

[14] = test system: ABT-199 resistant Burkitt lymphoma Raji cells; assay: WST-1 anti-proliferative activity in Raji cells; assay type: cell-based, Human
From the text: WST-1 is a cell proliferation reagent that is used in colorimetric assays designed to measure the relative proliferation rates of cells in culture. The assay is based on the conversion of the tetrazolium salt WST-1 into a colored dye by mitochondrial dehydrogenase enzymes. The soluble salt is released into the media. Within a given time period, the reaction produces a color change that is directly proportional to the amount of mitochondrial dehydrogenase in a culture. The WST-1 assay measures the net metabolic activity of cells.

[15] = test system: MCL-1 driven Raji cells
[16] = target: Bcl-2 (Homo sapiens, UniProt P10415); assay: Ki determination for Bcl-2 (BCL-2 family binding spectrum); details: read-out: Ki BCL-2
Summary of the method: as §1

[17] = test system: Human Raji cells; assay type: cell-based; details: Raji Cell Viability, 48 h, 5% serum
Experimental: BIM peptidomimetic macrocycles were tested for cell killing at various concentrations. Human Raji cells were treated with increasing doses of peptidomimetic macrocycles corresponding to Aileron peptide A (FIGS. 1 and 2), Aileron peptide B (FIGS. 1-3), and Aileron peptide C (FIGS. 3 and 4). An […] was calculated for each dose of the peptidomimetic macrocycle from a non-linear fit of response vs dose (GraphPad Prism).

Mcl-1, sequence (Q07820 whole entry, species assumed): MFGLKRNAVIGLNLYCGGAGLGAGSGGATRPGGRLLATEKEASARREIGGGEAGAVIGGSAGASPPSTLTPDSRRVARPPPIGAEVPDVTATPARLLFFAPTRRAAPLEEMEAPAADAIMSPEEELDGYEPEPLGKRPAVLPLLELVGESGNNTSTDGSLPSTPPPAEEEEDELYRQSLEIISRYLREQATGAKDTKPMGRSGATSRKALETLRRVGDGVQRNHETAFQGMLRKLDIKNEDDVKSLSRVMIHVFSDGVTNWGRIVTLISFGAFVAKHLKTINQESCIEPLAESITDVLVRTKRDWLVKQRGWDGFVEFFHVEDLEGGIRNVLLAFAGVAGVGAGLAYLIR
Bcl-xL, sequence (Q07817 whole entry, species assumed): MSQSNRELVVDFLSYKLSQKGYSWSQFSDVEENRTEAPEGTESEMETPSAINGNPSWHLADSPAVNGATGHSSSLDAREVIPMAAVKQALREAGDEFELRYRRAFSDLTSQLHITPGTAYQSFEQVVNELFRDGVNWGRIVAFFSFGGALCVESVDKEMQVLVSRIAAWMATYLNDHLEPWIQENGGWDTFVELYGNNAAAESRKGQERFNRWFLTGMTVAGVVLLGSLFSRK
T1 sequence (Q07820 whole entry): as the sequence (Q07820 whole entry, species assumed) above
Bcl-2, sequence (P10415 whole entry, species assumed): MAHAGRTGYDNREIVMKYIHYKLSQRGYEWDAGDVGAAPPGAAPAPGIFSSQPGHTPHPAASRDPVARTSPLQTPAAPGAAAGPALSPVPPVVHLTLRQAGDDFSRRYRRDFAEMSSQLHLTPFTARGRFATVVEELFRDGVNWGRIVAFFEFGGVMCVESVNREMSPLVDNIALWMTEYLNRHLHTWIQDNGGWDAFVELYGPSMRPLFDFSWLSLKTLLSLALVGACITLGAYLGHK

`CC[C@H](C)[C@H](NC(=O)[C@H](Cc1c[nH]c2ccccc12)NC(=O)[C@H](CCCNC(=N)N)NC(C)=O)C(=O)N[C@@H](C)C(=O)N[C@@H](CCC(N)=O)C(=O)N[C@@H](C)C(=O)N[C@@H](CC(C)C)C(=O)N[C@@H](CCCNC(=N)N)C(=O)N[C@@]1(C)CCCC=CCCC[C@@](C)(C(=O)N[C@@H](CC(C)C)C(=O)N[C@@H](CC(N)=O)C(=O)NC(C)(C)C(=O)N[C@@H](Cc2ccccc2)C(=O)N[C@@H](Cc2ccc(O)cc2)C(=O)N[C@@H](C)C(=O)N[C@@H](Cc2c[nH]cn2)C(=O)N[C@@H](Cc2c[nH]cn2)C(N)=O)NC(=O)[C@H](CC(=O)O)NC(=O)CNC(=O)[C@H]([C@@H](C)CC)NC1=O` [Peptide #14] (Ac-RWIAQALR[S5]IGD[S5]LN[Aib]FYAHH-NH2; staple 9-13) was tested, and the Ki ([1]; TABLE 7, read-out: MCL-1 Ki) was 11 nM, the “Ki of MCL-1 compared with Ki of BCL-xL or BCL-2” value ([2]; TABLE 7 assay) was “drastically lower” and the Profile [2] was “Mcl-1 selective”. For the same molecule, the “disrupting the MCL-1/BAK protein-protein interaction (normalized FRET signal)” value [3] was “highly effective”.
For `CC[C@H](C)[C@H](NC(C)=O)C(=O)N[C@@H](Cc1c[nH]c2ccccc12)C(=O)N[C@H](C(=O)N[C@@H](C)C(=O)N[C@@H](CCC(N)=O)C(=O)N[C@@H](C)C(=O)N[C@@H](CC(C)C)C(=O)N[C@@H](CCCNC(=N)N)C(=O)N[C@]1(C)CCCCCCC=CCCC[C@@](C)(C(=O)N[C@@H](Cc2ccc(O)cc2)C(=O)N[C@@H](Cc2ccc(F)cc2)C(=O)N[C@@H](C)C(N)=O)NC(=O)[C@H](CC(N)=O)NC(=O)[C@H](Cc2ccccc2)NC(=O)[C@H](C)NC(=O)[C@H](CC(=O)O)NC(=O)CNC(=O)[C@H](CCC(C)C)NC1=O)[C@@H](C)CC` [Peptide #16] (Ac-IWIAQALR[R8][hLeu]GDAFN[S5]Y[Phe(4-F)]A-NH2; staple 9-16), the Ki ([1]; TABLE 8, read-out: Mcl-1 Ki) was 27 nM, the Ki ([4]; TABLE 8, read-out: Bcl-xL Ki) was 13 nM and the Profile [2] was “Pan-selective”. For the same molecule, the “% cell viability” value [5] was “decreased the % viability of the cells”, the “% cell viability” value [6] was “decreased the % viability of the cells” and the “% cell viability” value [7] was “decreased the % viability of the cells”. For the same molecule, the “Relative caspase-3/7 activation” value [8] was “higher levels of caspase-3/7 activation than the BIM SAHBA1 control”, the “Relative caspase-3/7 activation” value [9] was “higher levels of caspase-3/7 activation than the BIM SAHBA1 control” and the “Relative caspase-3/7 activation” value [10] was “higher levels of caspase-3/7 activation than the BIM SAHBA1 control”. For the same molecule, the on-mechanism cytotoxic activity [11] was “exhibited on-mechanism cytotoxic activity”, the on-mechanism cytotoxic activity [12] was “did not exhibit on-mechanism cytotoxic activity” and the “off-target cytotoxicity in the LDH assay” value [13] was “No off-target cytotoxicity was observed”. The “potency relative to BIM SAHBA1” value ([14]; Raji cell line) was “ten times more potent than BIM SAHBA1”, the IC50 ([14]; TABLE 9, Raji cell proliferation) was 2000 nM and the EC50 [15] was 1200 to 1600 nM. For the same molecule, the “anti-proliferative effects in combination” value ([15]; Raji cells, combined with fixed doses of the other agent (peptide #16 0.95-3.8 μM or ABT-199 1.9-3.8 μM)) was “enhanced” and the “Raji cell proliferation (fraction of control)” value ([15]; increasing doses, combination study) was “decreased”.
For `CC[C@H](C)[C@H](NC(C)=O)C(=O)N[C@@H](Cc1c[nH]c2ccccc12)C(=O)N[C@H](C(=O)N[C@@H](C)C(=O)N[C@@H](CCC(N)=O)C(=O)N[C@@H](C)C(=O)N[C@@H](CC(C)C)C(=O)N[C@@H](CCCNC(=N)N)C(=O)N[C@]1(C)CCCCCCC=CCCC[C@@](C)(C(=O)N[C@@H](Cc2ccc(O)cc2)C(=O)N[C@@H](Cc2ccc(O)cc2)C(=O)N[C@@H](C)C(N)=O)NC(=O)[C@H](CC(N)=O)NC(=O)[C@H](Cc2ccccc2)NC(=O)[C@H](CCC(=O)O)NC(=O)[C@H](CC(=O)O)NC(=O)CNC(=O)[C@H]([C@@H](C)CC)NC1=O)[C@@H](C)CC` [compound 1649] (Ac-IWIAQALR[R8]IGDEFN[S5]YYA-NH2; staple 9-16), the Ki ([1]; read-out: Ki MCL-1) was 1.8 nM, the Ki ([4]; read-out: Ki BCL-XL) was 1.4 nM and the Ki [16] was 3.2 nM. It also gave an EC50 [17] greater than 40 µM.
